From patent US20110190270A1, “METHODS OF TREATING THROMBOEMBOLIC DISORDERS” (MONASH UNIVERSITY, priority 2008, published 2011)

Experiments:
[1] = test system: thrombi in mesenteric post-capillary venules; assay: intravital microscopy of thrombus growth and stability after vessel injury; type: in vivo, mice; conditions: for effect on thrombus stability and embolization in vivo (in words): local microinjection after thrombus formation; for effect on thrombus stability and embolization in vivo (in words) / mean reduction in thrombus size: needle puncture, no lepirudin; for stability of the primary hemostatic plug (in words): mice pretreated with lepirudin 50 mg/kg i.v., local infusion into formed thrombus; for mean reduction in thrombus size: local administration into the microcirculation after thrombus formation
Description: The development and consolidation of thrombi in response to vessel injury was monitored using intravital microscopy. C57BL6 or PAR4 deficient (15 g-18 g) mice were anaesthetised using sodium pentobarbitone (60 mg/kg), and the mesentery exteriorized through a midline abdominal incision. Body temperature was maintained during the procedure using an infrared heat lamp, and exposed mesenteric vessels (50-160 μm diameter) were hydrated using warm saline. Vessel injury was achieved either through vessel puncture using a microinjection needle (20-30 μm tip diameter) connected to a micromanipulator (Eppendorf), or through application of 6% FeCl3-soaked filter paper (8 sec). Accrual of platelets to the area of injury was recorded in real-time as described for in vitro flow assays (above). […] (25 mM stock solution, 2.5 μl total injection volume), or an equivalent volume of vehicle (DMSO), were locally infused into developing thrombi via the microinjection needle (release rate 2-3 μl/min, 3 cycles). To prevent fibrin generation, in some experiments, lepirudin (50 mg/kg) was administered via intravenous injection prior to induction of injury and subsequent injection of inhibitors. Complete abolition of fibrin formation at this concentration of lepirudin was confirmed by histology using Carstair's stain. The surface area of thrombi in vivo was measured using Image J, with analysis of every 5th frame (at 1 frame/sec) over 4-5 mins. Change in surface area was expressed as fold-increase or decrease over the original surface area (=1).

[2] = test system: platelet thrombi formed from human whole blood; assay: in vitro thrombus consolidation under flow on Type I collagen; type: cell-based; conditions: for effect of fibrin/thrombin inhibition on contraction of platelet thrombi (in words): whole blood, 1800 s-1, GPRP 280 μM in native blood, hirudin-anticoagulated, lepirudin 1600 U/ml + enoxaparine 400 U/ml
Description: Flow-based thrombus formation assays on a bovine fibrillar Type I collagen matrix were performed at 37° C. in the absence of fibrin. Briefly, […] (DMSO), Blebbistatin (+) (200 μM), Blebbistatin (−) (200 μM), EGTA/Mg^2+ (2 mM/1 mM), HA1077 (80 μM), H1152 (40 μM) or 2-APB (200 μM) (10 mins, 37° C.) prior to perfusion through fibrillar type I collagen-coated microcapillary tubes (2.0 mg/ml) at 1800 s^−1 for 5 mins. Thrombus formation was observed using an inverted Leica DMIRB microscope (Leica Microsystems, Wetzlar, Germany) with a 63× water objective (1.2 numeric aperture (NA)), and recorded in real-time using a Dage-MTI charge-coupled device (CCD) camera 300 ETRCX (Dage-MTI, Michigan City, Ind.).
Two-dimensional quantification of thrombus consolidation—Quantification of thrombus contraction was performed by ‘spiking’ whole blood with 3% DiIC12-labelled platelets prior to perfusion. Spiked whole blood was then perfused over collagen matrices as described above, and DIC/fluorescence images were recorded in real-time as described above, for off-line analysis. Studies examining the effect of 2-APB on consolidation were performed by perfusing untreated whole blood across microslides for 30 seconds to establish a nucleating thrombus, followed by perfusion of inhibitor treated blood. […] The distance between 2 fluorescently-labelled platelets in a given thrombus was measured in […] every 30 sec over 5 min. Results are expressed as percentage decrease in the distance between 2 platelets incorporated into a thrombus prior to 1 minute of flow, with the distance between platelets at 1 minute taken as 100%.
3D volumetric thrombus analysis—For analysis of thrombus volume, whole blood was labelled with DiIC12 (1 μM) prior to perfusion. Thrombi were formed as described above, and images captured in real-time using an inverted Leica DMIRB confocal microscope, with […] sections acquired every 30 seconds over 4-5 min. Analysis of thrombus volume was performed using Metamorph 6 software.

[3] = test system: platelet-mediated fibrin clot retraction in citrated PRP; assay: platelet-mediated fibrin clot retraction; type: cell-based, human; conditions: thrombin 1 U/ml, 2-APB 200 μM, EGTA/Mg2+ 2 mM/1 mM, H1152 40 μM, HA1077 80 μM
Description: Washed platelets were prepared from acid-citrate dextrose (ACD)-anticoagulated whole blood, with the inclusion of Lepirudin (800 U/ml) in the Platelet Washing Buffer and Apyrase (0.02 U/ml) in the Tyrode's Buffer.
Platelet-mediated fibrin-dependent clot retraction was measured using citrated PRP^9,10. Results are expressed as, the percentage of serum remaining in the tube following clot removal, after subtracting the volumes obtained for c7E3 (negative control) samples.

non-muscle myosin II = conditions: read-out: IC50, inhibitor of non-muscle myosin II; cited from earlier work
[4] = test system: occlusive blood clot in the carotid artery; assay: carotid artery occlusion model, clot lysis and vascular reperfusion; type: in vivo, mice; conditions: regimens A-H of FIGS. 8 and 9, blood flow monitored 60 minutes
Description: Mice were anaesthetised and minor surgery performed to expose to the carotid artery and jugular vein. A Doppler flow probe was placed around the carotid artery to monitor blood flow through this blood vessel, and a catheter placed in the jugular vein to administer drugs. A blood clot was formed in the carotid artery of the mouse through the delivery of a small electric current (4 mA for 1.25 min^g), resulting in complete blockage of blood flow through the vessel (blood flow=0 mls/min), as measured by the flow probe. After vessel blockade was established, various combinations of t-PA, urokinase, heparin, hirudin, HA1077 and Y27632 were administered, using concentrations and regimens indicated (A-H in FIGS. 8 and 9) and examined for their efficacy to dissolve blood clots and restore blood flow. Blood flow was monitored in mice receiving each drug combination for a further 60 minutes, and blood flow measurements recorded using computer software.

[5] = H1152 40 μM, Blebbistatin (−) 200 μM, lepirudin-anticoagulated human whole blood, 1800 s-1
[6] = GPRP added to native whole blood, 1800 s-1

Cc1ccc2c(c1)C(=O)C1(O)CCN(c3ccccc3)C1=N2 (single isomer, unassigned) [inactive blebbistatin enantiomer]
effect on thrombus stability and embolization in vivo (in words) [1]: no effect
stability of the primary hemostatic plug (in words) [1]: no adverse effect

NCCOB(c1ccccc1)c1ccccc1 [2-APB, 2-aminoethoxydiphenyl borate]
reduction of thrombus contraction ([2]; 2-APB 200 μM, perfused after 30 sec of untreated blood, lepirudin-anticoagulated human whole blood, 1800 s-1): 32%
fibrin clot retraction (in words) [3]: abolished clot retraction

Cc1ccc2c(c1)C(=O)C1(O)CCN(c3ccccc3)C1=N2 (stereo not drawn) [Blebbistatin]
stability of thrombi formed in vitro (in words) [2, 5]: highly unstable platelet thrombi
effect on thrombus contraction / consolidation (in words) ([2]; HA1077 80 μM, Blebbistatin (−) 200 μM, lepirudin-anticoagulated human whole blood, 1800 s-1): tight packing of platelets did not occur
thrombus behaviour on cessation of administration ([1]; after stopping local administration): thrombi rapidly reformed
mean reduction in thrombus size [1]: 38%
stability of the primary hemostatic plug (in words) ([1]; listed as active enantiomer of blebbistatin): near complete embolization of the formed thrombus
IC50 (non-muscle myosin II): ~4 µM

O=C(O)CN(CCOCCOCCN(CC(=O)O)CC(=O)O)CC(=O)O [EGTA]
reduction of the rate of thrombus contraction ([2]; EGTA/Mg2+ 2 mM/1 mM, lepirudin-anticoagulated human whole blood, 1800 s-1, at 5 mins perfusion): up to 52%
fibrin clot retraction (in words) [3]: no significant inhibitory effect

Cc1cncc2cccc(S(=O)(=O)N3CCCNC[C@@H]3C)c12.Cl.Cl [H1152, (S)-(+)-2-methyl-1-[(4-methyl-5-isoquinolinyl)sulfonyl]homopiperazin, 2HCl]
stability of thrombi formed in vitro (in words) [2, 5]: less stable thrombi
decrease in thrombus contraction ([2]; H1152 40 μM, lepirudin-anticoagulated human whole blood, 1800 s-1, after 5 mins perfusion): 88%
fibrin clot retraction (in words) [3]: neither inhibitor had any significant effect
mean reduction in thrombus size [1]: 34%
effect on thrombus stability and embolization in vivo (in words) [1]: more effective than the IP3 receptor antagonist APB

Cl.O=S(=O)(c1cccc2cnccc12)N1CCCNCC1 [HA1077, 1-(5-isoquinolinesulphonyl)-homopiperazine HCl]
fibrin clot retraction (in words) [3]: neither inhibitor had any significant effect
clot lysis and re-establishment of blood flow (in words) [4]: unable to lyse blood clots and re-establish blood flow

Gly-Pro-Arg-Pro peptide [GPRP]
formation of fibrin polymers [2, 6]: inhibited the formation of individual fibrin polymers
platelet thrombus growth [2, 6]: no inhibitory effect
effect of fibrin/thrombin inhibition on contraction of platelet thrombi (in words) [2]: unaltered

lepirudin
effect of fibrin/thrombin inhibition on contraction of platelet thrombi (in words) [2]: underwent a prominent contractile phase
thrombus stability in the absence of thrombin ([1]; wild type mice pretreated with lepirudin 50 mg/kg prior to vessel injury): thrombi were more unstable
